Measured values as given in patent publication US20050202070A1, “Iodine/iodide-containing hot melt coatable adhesive, methods and uses therefor” (priority 2002, published 2005).
Like-named read-outs stand apart in the source and are kept apart here.

Columns and labels:
[1] = Solubility of PVPI, I2/NaI and I2 in plasticizer compounds
[2] = cited from earlier work

Solubility of 2% I2/2.4% NaI in the plasticizer [1]	Solubility of 18% I2 in the plasticizer [1]	SMILES	Vapor pressure ([2]; at 25C)	Vapor pressure ([2]; at 90C)	Vapor pressure ([2]; at 184.4C (boils))
Soluble	Soluble	CCCCNS(=O)(=O)c1ccccc1 [Plasthall BSA, N-n-butylbenzenesulfonamide]			
Soluble	Soluble	CCCCC(CC)C(=O)OCCOCCOCCOCCOC(=O)C(CC)CCCC (stereo not shown) [TerMerR 804, tetraethyleneglycol di-2ethylhexanoate]			
		II [iodine]	0.30 mmHG	26.7 mmHg	760 mmHg
